The source of these data is patent US20100184678A1, “USE OF A PEPTIDE AS A THERAPEUTIC AGENT” (priority 2007, published 2010).

Where no end group is shown, it is not given here.

In one assay the test system is HCMV strain AD169. In words: HCMV plaque formation assay in MRC-5 cells. In kind it is cell-based. The conditions noted are these: for inhibition of HCMV plaque formation as compared to the virus control experiment: 10 micrograms per ml, MRC-5 cells, 7-10 days. The text has this:
Ganciclovir was used as positive control.

For another assay, the system named is HUVEC. In words: Endothelial tube formation assay. In kind it is cell-based, human. Conditions: 10 micrograms per ml; 20 hours. The text has this:
Positive control was vehicle only. […] Raw data were expressed as average tubule lenghs in pixels±standard deviation.

The subject of assay [1] is hepatitis B virus (HBV) ayw strain. In words: HBV assay in HepG2-2.2.15 cells (secreted HBV DNA, TaqMan PCR). The format is cell-based. Conditions: 10 micrograms per ml, HepG2-2.2.15, six days.
The subject of assay [2] is A549 cells. Description: Apoptosis prevention assay (C2 ceramide, Annexin-5). In kind it is cell-based, human. The conditions noted are these: 10 micrograms per ml, 30 min pretreatment, then C2 ceramide.
Procedure: Human A549 cells (carcinomic human alveolar basal epithelial cells) were utilized in the experiments employing the Annexin-5 apoptosis assay. […] A549 cells were pretreated for 30 min with test peptides—10 micrograms per ml—followed by the exposure to C2 ceramide.
The next assay has as its system murine spleen cells. Description: Th1/Th2 cytokine profiling assay (Ovalbumin-restimulated spleen cells). Conditions: 10 micrograms per ml, 72 hours; for production of IFN-gamma (decreased by %) / production of IL-4 (decreased by %) / production of IL-5 (decreased by %): number = decrease; for production of TNF-alpha (induced by %): number = increase. In kind it is cell-based, Balb/c mice.

The test system of assay [3] is A549 cells. Description: Apoptosis induction assay (Annexin-5). In kind it is cell-based, human. The conditions noted are these: 10 micrograms per ml; 24 hours.
Procedure: Human A549 cells (carcinomic human alveolar basal epithelial cells) were utilized in the experiments employing the Annexin-5 apoptosis assay. […] Test peptides—10 micrograms per ml—were exposed for 24 hours to the A549 cells before they were analyzed for signs of apoptosis.
Assay [4] concerns Primary Human endothelial cells (HUVEC). Description: Endothelial cell migration assay. In kind it is cell-based. The conditions noted are these: 10 micrograms per ml; 22 hours. The protocol: Thereafter, designated concentration of testing peptides—10 micrograms per ml—was added in duplicate wells.
In another assay the test system is HIV-1IIIB. Description: HIV-1 antiviral assay in CEM-SS cells (MTS readout). The conditions noted are these: HIV-1IIIB in CEM-SS cells.

For `Nc1nc(O)c2ncn(COC(CO)CO)c2n1` [Ganciclovir, reference compound], the “antiviral activity of positive control compound” value with HCMV strain AD169 (HCMV in MRC-5 cells) is listed as “expected levels of antiviral activity”.

Take “His-Pro-Leu-Gln-Lys-Thr-Tyr-OH (HPLQKTY-OH) [Peptide 1]”: the “inhibition of HCMV plaque formation as compared to the virus control experiment” value in the assay on HCMV strain AD169 was determined as 0.3%. Also, the “inhibition of the tube formation of human endothelial cells” value with HUVEC was determined as 6%. Also, the “inhibition of HBV replication as compared to the virus control infection” value in assay [1] came out at 25.3%. For the same compound, the “induction of apoptosis on ceramide-induced apoptosis” value in the assay on A549 cells [2] (increase of apoptosis) is on record as 9.7%. Besides, in the assay with murine spleen cells, the “production of IL-2 (change)” value was “did not significantly change”, the “production of IFN-gamma (decreased by %)” value is on record as “did not significantly change”, the “production of IL-4 (decreased by %)” value was determined as 30.9% and the “production of IL-5 (decreased by %)” value is given as “did not significantly change”. Also, the “production of TNF-alpha (induced by %)” value in the assay on murine spleen cells is given as 31.3%. The “induction of apoptosis on human lung cells” value in the assay on A549 cells [3] is “did not show any significant induction”. Further, the “inhibition of the migration of human endothelial cells” value in assay [4] came out at 4%.

Turning to `Cc1cn([C@H]2C[C@H](N=[N+]=[N-])[C@@H](CO)O2)c(=O)[nH]c1=O` [AZT], the “antiviral activity of positive control compounds” value in the assay on HIV-1IIIB is recorded as “expected levels of antiviral activity”.

As for `CC(C)(C)NC(=O)[C@@H]1CN(Cc2cccnc2)CCN1C[C@@H](O)C[C@@H](Cc1ccccc1)C(=O)N[C@H]1c2ccccc2C[C@H]1O` [indinavir], the “antiviral activity of positive control compounds” value with HIV-1IIIB is recorded as “expected levels of antiviral activity”.

Take “His-Ser-Asp-Gly-Ile-Phe-Thr-Asp-Ser-Tyr-Ser-Arg-Tyr-Arg-Lys-Gln-Met-Ala-Val-Lys-Lys-Tyr-Leu-Ala-Ala-Val-Leu-NH2 (HSDGIFTDSYSRYRKQMAVKKYLAAVL-NH2) [Peptide 2]”: the “inhibition of HCMV plaque formation as compared to the virus control experiment” value in the assay on HCMV strain AD169 is “did not inhibit”. The “inhibition of the tube formation of human endothelial cells” value in the assay with HUVEC is recorded as “did not inhibit”. The “inhibition of HBV replication as compared to the virus control infection” value in assay [1] is 39.1%. Also, in the assay on A549 cells [2] (protection), the “prevention of apoptosis on ceramide-induced apoptosis” value is listed as 13.7%. In the assay on murine spleen cells, the “production of IL-2 (change)” value is “did not significantly change”, the “production of IFN-gamma (decreased by %)” value turned out to be 62.9%, the “production of IL-4 (decreased by %)” value is reported as “did not significantly change” and the “production of IL-5 (decreased by %)” value is 43.3%. Also, in the assay on murine spleen cells, the “production of TNF-alpha (induced by %)” value is “did not significantly change”. In the assay with A549 cells [3], the “induction of apoptosis on human lung cells” value is listed as 3.6%. The “inhibition of the migration of human endothelial cells” value in assay [4] is reported as “did not inhibit”.
